Test results as given in patent publication US6423689B1, “Peptidyl calcium channel blockers” (Warner-Lambert Company, priority 1997, dated 2002).

Assays:
[1] = biological target: T1, N-type Ca2+ channels in IMR-32 cells (Homo sapiens, UniProt Q00975); assay: Inhibition of N-type calcium flux in IMR-32 cells (Indo-1 fluorescence, nitrendipine present); type: cell-based; details: for inhibition at 1 µM / inhibition at 10 µM: IMR-32; for IC50: IMR-32 cells, 5 μM nitrendipine, K+ depolarization
T1 construct: host or cells: IMR-32 cells, differentiated with dibutyryl cAMP and bromodeoxyuridine
T1 sequence (Q00975 whole entry): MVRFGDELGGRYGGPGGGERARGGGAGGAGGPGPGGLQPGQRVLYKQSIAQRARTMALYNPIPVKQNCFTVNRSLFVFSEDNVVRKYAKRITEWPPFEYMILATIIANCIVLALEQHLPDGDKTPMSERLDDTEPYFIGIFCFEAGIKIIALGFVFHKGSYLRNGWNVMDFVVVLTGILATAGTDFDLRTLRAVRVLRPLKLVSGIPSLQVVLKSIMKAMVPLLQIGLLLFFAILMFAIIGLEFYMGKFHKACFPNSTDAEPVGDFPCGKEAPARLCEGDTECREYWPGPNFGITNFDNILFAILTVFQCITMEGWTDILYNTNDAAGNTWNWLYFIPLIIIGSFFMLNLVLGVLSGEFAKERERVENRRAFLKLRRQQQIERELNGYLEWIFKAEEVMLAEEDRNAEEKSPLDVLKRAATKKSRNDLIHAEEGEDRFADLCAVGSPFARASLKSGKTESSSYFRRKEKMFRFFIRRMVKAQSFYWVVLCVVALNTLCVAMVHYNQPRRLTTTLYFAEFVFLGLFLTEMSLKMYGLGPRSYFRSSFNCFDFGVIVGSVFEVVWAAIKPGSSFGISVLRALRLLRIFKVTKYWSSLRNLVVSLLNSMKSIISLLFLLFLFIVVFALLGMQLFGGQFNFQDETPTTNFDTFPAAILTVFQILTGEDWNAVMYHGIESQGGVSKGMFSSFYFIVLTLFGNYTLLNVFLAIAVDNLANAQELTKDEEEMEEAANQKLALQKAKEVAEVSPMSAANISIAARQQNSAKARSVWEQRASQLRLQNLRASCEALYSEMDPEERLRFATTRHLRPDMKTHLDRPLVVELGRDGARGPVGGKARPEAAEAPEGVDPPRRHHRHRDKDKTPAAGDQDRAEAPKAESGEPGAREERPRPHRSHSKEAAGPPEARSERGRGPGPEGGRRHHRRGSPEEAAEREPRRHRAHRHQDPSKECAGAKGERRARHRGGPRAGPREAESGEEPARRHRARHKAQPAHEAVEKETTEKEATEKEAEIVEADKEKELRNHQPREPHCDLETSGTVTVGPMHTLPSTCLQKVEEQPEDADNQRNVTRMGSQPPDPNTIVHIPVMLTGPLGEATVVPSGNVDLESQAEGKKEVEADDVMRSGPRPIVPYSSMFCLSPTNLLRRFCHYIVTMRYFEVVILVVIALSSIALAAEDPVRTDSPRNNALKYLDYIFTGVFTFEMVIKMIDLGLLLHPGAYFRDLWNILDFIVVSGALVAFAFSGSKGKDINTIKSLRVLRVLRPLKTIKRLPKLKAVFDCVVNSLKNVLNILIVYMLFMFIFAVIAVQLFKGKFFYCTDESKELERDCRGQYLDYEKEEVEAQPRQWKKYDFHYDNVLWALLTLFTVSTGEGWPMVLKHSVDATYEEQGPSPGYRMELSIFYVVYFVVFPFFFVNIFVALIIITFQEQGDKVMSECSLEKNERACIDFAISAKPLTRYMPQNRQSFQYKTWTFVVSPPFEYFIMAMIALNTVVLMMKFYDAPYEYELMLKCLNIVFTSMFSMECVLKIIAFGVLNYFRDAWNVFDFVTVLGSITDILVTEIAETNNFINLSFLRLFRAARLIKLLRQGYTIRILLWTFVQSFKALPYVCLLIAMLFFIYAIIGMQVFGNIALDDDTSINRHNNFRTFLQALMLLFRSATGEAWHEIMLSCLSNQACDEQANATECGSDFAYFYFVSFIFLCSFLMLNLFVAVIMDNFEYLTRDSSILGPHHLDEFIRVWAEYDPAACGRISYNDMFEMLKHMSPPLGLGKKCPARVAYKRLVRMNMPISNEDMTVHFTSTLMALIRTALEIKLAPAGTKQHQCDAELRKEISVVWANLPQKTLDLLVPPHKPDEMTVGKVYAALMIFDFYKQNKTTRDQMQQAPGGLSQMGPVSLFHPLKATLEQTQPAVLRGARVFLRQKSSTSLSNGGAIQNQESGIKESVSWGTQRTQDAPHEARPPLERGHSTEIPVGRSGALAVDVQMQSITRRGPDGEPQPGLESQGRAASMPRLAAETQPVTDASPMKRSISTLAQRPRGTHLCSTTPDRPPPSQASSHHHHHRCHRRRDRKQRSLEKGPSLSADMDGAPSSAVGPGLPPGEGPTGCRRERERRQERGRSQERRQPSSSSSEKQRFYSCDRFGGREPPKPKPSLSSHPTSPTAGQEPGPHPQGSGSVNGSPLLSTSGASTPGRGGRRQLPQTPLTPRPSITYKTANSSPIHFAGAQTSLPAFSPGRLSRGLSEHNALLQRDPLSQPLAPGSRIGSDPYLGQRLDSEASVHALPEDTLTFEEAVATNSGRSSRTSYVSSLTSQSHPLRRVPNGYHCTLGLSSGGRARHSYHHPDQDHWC
T1 sequence (P54289 25-956 partner limits assumed): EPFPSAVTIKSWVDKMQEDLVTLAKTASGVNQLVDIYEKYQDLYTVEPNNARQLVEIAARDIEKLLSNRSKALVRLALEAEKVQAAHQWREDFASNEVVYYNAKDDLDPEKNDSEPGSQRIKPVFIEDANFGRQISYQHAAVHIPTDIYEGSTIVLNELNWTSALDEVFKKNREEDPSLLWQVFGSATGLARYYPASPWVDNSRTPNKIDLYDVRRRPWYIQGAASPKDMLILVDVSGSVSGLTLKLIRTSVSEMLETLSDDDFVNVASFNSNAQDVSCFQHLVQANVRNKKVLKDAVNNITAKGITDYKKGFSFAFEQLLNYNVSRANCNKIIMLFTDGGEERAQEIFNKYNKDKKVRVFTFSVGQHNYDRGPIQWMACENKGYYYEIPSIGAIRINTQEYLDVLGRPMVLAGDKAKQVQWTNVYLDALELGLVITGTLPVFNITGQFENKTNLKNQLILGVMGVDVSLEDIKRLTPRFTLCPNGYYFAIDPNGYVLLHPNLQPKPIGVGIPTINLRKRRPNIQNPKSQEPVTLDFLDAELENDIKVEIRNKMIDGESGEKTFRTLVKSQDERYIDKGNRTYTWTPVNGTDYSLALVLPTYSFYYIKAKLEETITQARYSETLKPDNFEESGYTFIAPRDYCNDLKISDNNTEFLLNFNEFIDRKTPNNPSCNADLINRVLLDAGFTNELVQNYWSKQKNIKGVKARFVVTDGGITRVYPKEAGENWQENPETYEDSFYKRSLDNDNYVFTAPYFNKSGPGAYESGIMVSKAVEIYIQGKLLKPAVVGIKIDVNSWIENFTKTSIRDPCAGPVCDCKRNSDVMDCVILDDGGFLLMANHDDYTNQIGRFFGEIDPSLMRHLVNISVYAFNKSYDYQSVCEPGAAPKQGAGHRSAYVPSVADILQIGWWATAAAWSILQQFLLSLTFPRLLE
T1 sequence (P54289 957-1103 partner limits assumed): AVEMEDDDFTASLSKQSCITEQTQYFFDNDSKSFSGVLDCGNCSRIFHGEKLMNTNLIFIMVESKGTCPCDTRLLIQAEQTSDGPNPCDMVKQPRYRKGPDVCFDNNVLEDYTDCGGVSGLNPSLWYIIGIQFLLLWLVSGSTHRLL
T1 sequence (P54284 whole entry partner): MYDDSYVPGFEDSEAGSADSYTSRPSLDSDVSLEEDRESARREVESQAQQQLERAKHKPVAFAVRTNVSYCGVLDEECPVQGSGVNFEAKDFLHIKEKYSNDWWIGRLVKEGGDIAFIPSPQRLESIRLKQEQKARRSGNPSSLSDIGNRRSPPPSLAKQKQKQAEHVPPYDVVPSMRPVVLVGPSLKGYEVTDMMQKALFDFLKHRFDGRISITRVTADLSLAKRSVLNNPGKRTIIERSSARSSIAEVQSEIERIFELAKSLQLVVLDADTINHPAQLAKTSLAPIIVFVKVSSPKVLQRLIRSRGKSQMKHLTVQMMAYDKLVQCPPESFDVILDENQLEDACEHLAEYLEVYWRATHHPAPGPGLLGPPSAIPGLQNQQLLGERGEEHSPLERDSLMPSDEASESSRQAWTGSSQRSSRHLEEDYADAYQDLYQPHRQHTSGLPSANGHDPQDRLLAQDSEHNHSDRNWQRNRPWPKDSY
Method in brief: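 With L-type flux blocked by 5 μM nitrendipine, N-type Ca2+ entry was read as the Indo-1 emission ratio (400/490 nm, excitation 350 nm) at 30° C after KCl depolarization.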

[2] = system: L-type Ca2+ channels in GH3 cells; assay: Inhibition of L-type calcium flux in GH3 cells (Indo-1 fluorescence); type: cell-based, rat
Protocol: Measurement of L-type Ca^2+ Channel Blocking Potencies of Compounds in GH3 Cells Using the Fluorescent Ca^2+ Indicator Indo-1
The GH3 rat pituitary cell line was obtained from the American Type Culture Collection (Rockville, Md.). Cells were grown in Ham's F-10 medium with 15% horse serum, 2.5% fetal bovine serum (FBS), and […] (Gibco, Gaithersburg, Md.). Confluent cells were detached using 0.5 mM EDTA and loaded with 5 μM Indo-acetoxymethyl ester (Molecular Probes, Eugene, Oreg.) in 1% bovine serum albumin (BSA) containing assay buffer (10 mM HEPES/Tris pH 7.4 in Hank's Balanced Salt Solution without bicarbonate or phenol red) for 60 minutes at 30° C. Loaded cells were washed twice, resuspended (approx. 10^7 cells/mL) in assay buffer containing 0.5% BSA, and kept on ice until use (<3 hrs). Different concentrations of the test compounds (60 μL in dimethyl sulfoxide) or controls were added to 5.94 mL of assay buffer containing approximately 3×10^6 loaded cells, and the samples were incubated for 10 minutes at 30° C. After incubation, samples were aliquoted into 3 cuvettes, and their fluorescence was measured with a Photon Technology International (PTI, South Brunswick, N.J.) Model RF-F3004 spectrofluorometer thermostatted at 30° C. Excitation was set at 350 nm and dual emissions were recorded at 400 and 490 nm. Basal emission signals were acquired for 20 seconds, followed by the depolarization of cells by the addition of 200 μL of a stimulation solution (1 M KCl, 68 mM CaCl2) to the stirred cuvette. Emission signals were acquired for an additional 50 seconds after depolarization. Ratio of emission signals (F400 nm/F490 nm), which is proportional to intracellular Ca^2+ concentration, was plotted against time, and the difference between the emission ratio 50 seconds after stimulation and its basal value (before stimulation) was determined. Values obtained in this way were considered as measures of depolarization-induced Ca-flux through L-type channels and plotted as a function of drug concentration. IC50 values of test compounds were calculated by fitting a four-parameter logistic function to the data using the least squares method.

[3] = biological target: T2, N-type Ca2+ channels in superior cervical ganglion (SCG) neurons (Rattus norvegicus, UniProt Q02294); assay: Whole-cell voltage clamp, N-type Ca2+ current in SCG neurons; type: cell-based
T2 construct: from tissue
Method in brief: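 Whole-cell voltage clamp of acutely trypsin-dissociated rat SCG neurons, with TEA/choline external solution (2 mM Ca2+) and Cs-methanesulfonate pipette solution. Currents evoked by 150 ms steps to +20 mV from −65 to −55 mV holding, every 40 s; compounds applied locally, effect as % inhibition of control amplitude.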

[4] = system: K+ channels in superior cervical ganglion (SCG) neurons; assay: Whole-cell voltage clamp, K+ current in SCG neurons; type: cell-based, rat; details: 10 μM
Method in brief: (§1)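 Percent inhibition of control amplitude at steady-state block is the read-out: peak inward Na+ current at 0 mV, sustained K+ current at +50 mV, 35 msec steps every 10 sec from −65 to −55 mV. Recordings used whole-cell clamp of trypsin-dissociated SCG neurons, pH 7.4 external and pipette solutions, compounds applied by local perfusion.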

[5] = system: Na+ channels in superior cervical ganglion (SCG) neurons; assay: Whole-cell voltage clamp, Na+ current in SCG neurons; type: cell-based, rat; details: 10 μM
Method in brief: as §1

Q: Which inhibition at 1 µM [1] does the source give for `CC(C)(C)OC(=O)[C@@H](Cc1ccc(OCc2ccccc2)cc1)NC(=O)[C@H](Cc1ccccc1)NC(=O)N1CCCCCC1` [Example 18, 2(R)-{2(S)-[(Azepane-1-carbonyl)-amino]-3-phenyl-propionylamino}-3-(4-benzyloxy-phenyl)-propionic acid tert-butyl ester] here?
A: Its inhibition at 1 µM is 50%.

Q: And the inhibition at 10 µM [1]?
A: The inhibition at 10 µM was 97%.

Q: And the IC50 [1]?
A: The IC50 was 0.93 µM.

Q: What about the IC50 [2] of the same compound?
A: The IC50 was 3.5 µM.

Q: What does the source list for `CC(C)C[C@H](NC(=O)N1CCCCCC1)C(=O)N[C@@H](Cc1ccc(OCc2ccccc2)cc1)C(=O)NC(C)(C)C` [Example 23, [S-(R*,R*)]-Azepane-1-carboxylic acid {1-[2-(4-benzyloxy-phenyl)-1-tert-butylcarbamoyl-ethylcarbamoyl]-3-methyl-butyl}-amide]?
A: inhibition at 10 µM ([3]; 10 μM): 78%; IC50 ([3]; read-out: Inhibition of N-type Ca2+ Current IC50): 3.24 µM; inhibition at 1 µM [1]: 55%; inhibition at 10 µM [1]: 95%; IC50 [1]: 0.58 µM; Inhibition of K+ Current, % Inhibition at 10 μM [4]: 61%; Inhibition of Na+ Current, % Inhibition at 10 μM [5]: 30%; IC50 [2]: 18 µM

Q: For `Cc1ccc(COc2ccc(C[C@H](NC(=O)[C@H](Cc3ccccc3)NC(=O)N3CCCCCC3)C(=O)OC(C)(C)C)cc2)cc1` [Example 19, [S-(R*,R*)]-2-{2-[(Azepane-1-carbonyl)-amino]-3-phenyl-propionylamino}-3-[4-(4-methyl-benzyloxy)-phenyl]-propionic acid tert-butyl ester], which inhibition at 1 µM [1] is on record?
A: The inhibition at 1 µM was 68%.

Q: And the inhibition at 10 µM [1]?
A: The inhibition at 10 µM was 91%.

Q: And the IC50 [1]?
A: Its IC50 is 0.5 µM.

Q: What about the melting point of the same compound?
A: Its melting point is 87 to 90 °C.

Q: What about the IC50 [2] of the same compound?
A: The IC50 was 4.3 µM.

Q: With `CC(C)(C)OC(=O)[C@H](Cc1ccc(OCc2ccccc2)cc1)NC(=O)[C@H](Cc1c[nH]c2ccccc12)NC(=O)N1CCCCCC1` [Example 20, [S-(R*,R*)]-2-[2-[(Azepane-1-carbonyl)-amino]-3-(1H-indol-3-yl)-propionylamino]-3-(4-benzyloxy-phenyl)-propionic acid tert-butyl ester] as the compound, how does the inhibition at 1 µM [1] read?
A: The inhibition at 1 µM was 52%.

Q: What about the inhibition at 10 µM [1] of the same compound?
A: Its inhibition at 10 µM is 90%.

Q: What about the IC50 [1] of the same compound?
A: The IC50 was 0.91 µM.

Q: What about the IC50 [2] of the same compound?
A: Its IC50 is 4.6 µM.

Q: Which results are given for `CC(C)(C)OC(=O)[C@@H](Cc1ccc(OCc2ccccc2)cc1)NC(=O)[C@H](Cc1c[nH]c2ccccc12)NC(=O)N1CCCCCC1` [Example 17, 2(R)-[2(S)-[(Azepane-1-carbonyl)-amino]-3-(1H-indol-3-yl)-propionylamino]-3-(4-benzyloxy-phenyl)-propionic acid tert-butyl ester]?
A: inhibition at 1 µM [1]: 41%; inhibition at 10 µM [1]: 85%; IC50 [1]: 1.85 µM; IC50 [2]: 5.8 µM
